In US10815210B2, “Benzocyclobutane derivatives useful as dual SGLT1 / SGLT2 modulators” (Janssen Pharmaceutica NV, priority 2016, dated 2020):

Tests used:
human SGLT1 = biological target: T1, human SGLT1 (Homo sapiens, UniProt P13866); experiment: SGLT1 assay: Na-dependent 14C-AMG uptake in CHO-K1 cells stably expressing human SGLT1; format: cell-based; conditions: 500 μM AMG, 2 hours at 37° C.
T1 construct: expressed in transfected cells; host or cells: CHO-K1
T1 sequence (P13866 1-664): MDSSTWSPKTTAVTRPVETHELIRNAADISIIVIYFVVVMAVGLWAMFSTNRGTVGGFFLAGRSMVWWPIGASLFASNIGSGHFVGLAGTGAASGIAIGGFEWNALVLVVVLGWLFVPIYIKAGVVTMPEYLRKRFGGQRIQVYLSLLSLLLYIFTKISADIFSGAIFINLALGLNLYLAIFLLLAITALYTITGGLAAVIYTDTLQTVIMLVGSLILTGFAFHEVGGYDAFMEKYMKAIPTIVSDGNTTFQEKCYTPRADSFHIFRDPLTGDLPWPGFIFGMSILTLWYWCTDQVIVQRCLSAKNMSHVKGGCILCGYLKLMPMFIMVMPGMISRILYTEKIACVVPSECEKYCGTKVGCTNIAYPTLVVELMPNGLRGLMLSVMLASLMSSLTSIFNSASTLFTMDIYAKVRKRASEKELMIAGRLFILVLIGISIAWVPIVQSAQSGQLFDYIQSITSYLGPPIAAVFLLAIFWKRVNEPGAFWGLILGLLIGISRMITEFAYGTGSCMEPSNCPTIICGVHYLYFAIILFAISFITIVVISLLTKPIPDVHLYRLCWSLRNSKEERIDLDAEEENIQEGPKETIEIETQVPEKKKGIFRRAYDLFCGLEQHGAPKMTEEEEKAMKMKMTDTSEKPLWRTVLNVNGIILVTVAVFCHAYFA
Experimental: (§1) SGLT1 and SGLT2 were cloned in form of cDNA from human small intestine (Genbank M24847), and from human kidney (Genbank M95549), respectively. Subsequently, each full cDNA was subcloned into pcDNA with each construct's integrity verified through follow-on sequencing. To generate CHO-K1 cells that stably express human SGLT1 or human SGLT2, CHO-K1 cells were transfected using DMRIE-C reagent (Life Technologies, Gaithersburg, Md.). Transfected cells were then selected in the presence of 500 μg/ml of the Geneticin (G418 Cellgro Catalog No. 30234-CI)
(§2) Individual clones were then characterized using the following cell-based assay for sodium-dependent glucose transport:
(§3) Inhibition of SGLT1 and SGLT2 activity was assessed in CHO K1 cells stably expressing either human SGLT1 or SGLT2, using the SGLT specific glucose analog methyl-glucopyranoside (Sigma Catalog No. M-9376). Cells were plated (45,000 cells/well) in white wall 96-well plates (COSTAR, Cat#3903) for 24 hours in growth medium, then a final concentration of 10 mM Na-Butyrate (ALDRICH Cat#30341-0) was added. The cells were incubated for 24 hours. On the day of the assay, cells were rinsed and treated with test compounds (at concentrations of 0.001 μM to 10 μM) in assay buffer (50 mM HEPES, 20 mM Tris base, 5 mM KCl, 1 mM MgCl2, 1 mM CaCl2 and 137 mM NaCl, pH 7.4) for 10 minutes. Cells were then incubated with ^14C-a-methyl-d-glucopyranoside (AMG, Amersham Catalog No. CFB 76), using 0.07 μCi per well in 500 μM AMG final concentration. The cells were incubated for 2 hours at 37° C. with 5% CO2 and washed two times with ice-cold Phosphate Buffer Solution (Cellgro Catalog No. 21030-CV). The cells were then solubilized by adding 60 μl of MICROSCINT™20 and the Na-dependent ^14C-AMG uptake was quantified by measuring radioactivity. Plates were counted in a TopCount (Packard, Meriden, Conn.)

human SGLT2 = biological target: T2, human SGLT2 (Homo sapiens, UniProt P31639); experiment: SGLT2 assay: Na-dependent 14C-AMG uptake in CHO-K1 cells stably expressing human SGLT2; format: cell-based; conditions: 500 μM AMG, 2 hours at 37° C.
T2 construct: expressed in transfected cells; host or cells: CHO-K1
T2 sequence (P31639 1-672): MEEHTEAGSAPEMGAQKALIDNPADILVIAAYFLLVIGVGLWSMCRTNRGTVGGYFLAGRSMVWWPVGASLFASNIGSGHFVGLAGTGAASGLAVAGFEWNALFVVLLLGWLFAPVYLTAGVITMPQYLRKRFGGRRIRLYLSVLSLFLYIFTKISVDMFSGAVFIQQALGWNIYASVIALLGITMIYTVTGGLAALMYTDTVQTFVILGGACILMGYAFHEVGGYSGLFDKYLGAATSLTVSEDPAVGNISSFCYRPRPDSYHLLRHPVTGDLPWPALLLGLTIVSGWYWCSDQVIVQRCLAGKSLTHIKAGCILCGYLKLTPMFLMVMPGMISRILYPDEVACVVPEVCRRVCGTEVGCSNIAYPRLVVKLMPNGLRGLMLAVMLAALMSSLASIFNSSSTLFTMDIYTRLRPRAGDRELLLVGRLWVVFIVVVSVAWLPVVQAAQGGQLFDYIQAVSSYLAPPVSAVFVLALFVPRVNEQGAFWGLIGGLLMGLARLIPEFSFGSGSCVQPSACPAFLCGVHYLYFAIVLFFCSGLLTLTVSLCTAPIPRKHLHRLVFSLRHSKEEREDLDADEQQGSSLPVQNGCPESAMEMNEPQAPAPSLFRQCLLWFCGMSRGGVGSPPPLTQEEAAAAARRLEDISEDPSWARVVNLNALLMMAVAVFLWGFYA
Experimental: as §1, §2, §3

IC50 (human SGLT1) [nM] | IC50 (human SGLT2) [nM] | Structure (SMILES)
7 | 4 | [2H]C1([2H])Cc2ccc(Cc3cc([C@@H]4O[C@H](CO)[C@@H](O)[C@H](O)[C@H]4O)c(O)cc3C)cc21 (single isomer, unassigned) [Compound 61]
168 | 9 | [2H]C1([2H])Cc2ccc(Cc3cc([C@@H]4O[C@H](CO)[C@@H](O)[C@H](O)[C@H]4O)ccc3Cl)cc21 (single isomer, unassigned) [Compound 62]
93 | 4 | [2H]C1([2H])Cc2ccc(Cc3cc([C@@H]4O[C@H](CO)[C@@H](O)[C@H](O)[C@H]4O)ccc3OC)cc21 (single isomer, unassigned) [Compound 64]
41 | 2 | [2H]C1([2H])Cc2ccc(Cc3cc([C@@H]4O[C@H](CO)[C@@H](O)[C@H](O)[C@H]4O)c(OC)cc3OC)cc21 (single isomer, unassigned) [Compound 68]
62 | 1 | [2H]C1([2H])Cc2cc(Cc3cc([C@@H]4O[C@H](CO)[C@@H](O)[C@H](O)[C@H]4O)ccc3Cl)ccc21 (single isomer, unassigned) [Compound 81]
30 | 8 | [2H]C1([2H])Cc2cc(Cc3cc([C@@H]4O[C@H](CO)[C@@H](O)[C@H](O)[C@H]4O)ccc3OC)ccc21 (single isomer, unassigned) [Compound 82]
63 | 2 | [2H]C1([2H])Cc2cc(Cc3cc([C@@H]4O[C@H](CO)[C@@H](O)[C@H](O)[C@H]4O)c(OC)cc3OC)ccc21 (single isomer, unassigned) [Compound 84]
11 | 2 | [2H]c1c(C)c(Cc2ccc3c(c2)CC3)cc([C@@H]2O[C@H](CO)[C@@H](O)[C@H](O)[C@H]2O)c1O (single isomer, unassigned) [Compound 121]
15 | – | [2H]C([2H])([2H])Oc1cc(C)c(Cc2ccc3c(c2)CC3)cc1[C@@H]1O[C@H](CO)[C@@H](O)[C@H](O)[C@H]1O [Compound 110]
13 | – | [2H]C([2H])([2H])Oc1cc(CC)c(Cc2ccc3c(c2)CC3)cc1[C@@H]1O[C@H](CO)[C@@H](O)[C@H](O)[C@H]1O [Compound 111]
41 | – | [2H]C([2H])([2H])Oc1cc(C)c(C([2H])([2H])c2ccc3c(c2)CC3)cc1[C@@H]1O[C@H](CO)[C@@H](O)[C@H](O)[C@H]1O [Compound 119]

The next lines start with the compound.

Structure (SMILES) | IC50 (human SGLT1) [nM] | IC50 (human SGLT2) [nM]
[2H]C([2H])(c1ccc2c(c1)CC2)c1cc([C@@H]2O[C@H](CO)[C@@H](O)[C@H](O)[C@H]2O)c(O)cc1C (single isomer, unassigned) [Compound 52] | 4 | 1
[2H]C([2H])(c1ccc2c(c1)CC2)c1cc([C@@H]2O[C@H](CO)[C@@H](O)[C@H](O)[C@H]2O)ccc1Cl (single isomer, unassigned) [Compound 54] | 63 | 1
[2H]C([2H])(c1ccc2c(c1)CC2)c1cc([C@@H]2O[C@H](CO)[C@@H](O)[C@H](O)[C@H]2O)ccc1OC (single isomer, unassigned) [Compound 57] | 44 | 6
[2H]C([2H])(c1ccc2c(c1)CC2)c1cc([C@@H]2O[C@H](CO)[C@@H](O)[C@H](O)[C@H]2O)c(OC)cc1OC (single isomer, unassigned) [Compound 59] | 140 | 3
Cc1ccc([C@@H]2O[C@H](CO)[C@@H](O)[C@H](O)[C@H]2O)cc1Cc1ccc2c(c1)CC2 [Compound 1, (2S,3R,4R,5S,6R)-2-(3-((1,2-dihydrocyclobutabenzen-4-yl)methyl)-4-methylphenyl)-6-(hydroxymethyl)-tetrahydro-2H-pyran-3,4,5-triol] | 33 | 1
OC[C@H]1O[C@@H](c2ccc(Cl)c(Cc3ccc4c(c3)CC4)c2)[C@H](O)[C@@H](O)[C@@H]1O [Compound 2, (2S,3R,4R,5S,6R)-2-(4-chloro-3-((1,2-dihydrocyclobutabenzen-4-yl)methyl)phenyl)-6-(hydroxymethyl)-tetrahydro-2H-pyran-3,4,5-triol] | 45 | 1
COc1ccc([C@@H]2O[C@H](CO)[C@@H](O)[C@H](O)[C@H]2O)cc1Cc1ccc2c(c1)CC2 [Compound 3, (2S,3R,4R,5S,6R)-2-(3-((1,2-dihydrocyclobutabenzen-4-yl)methyl)-4-methoxyphenyl)-6-(hydroxymethyl)-tetrahydro-2H-pyran-3,4,5-triol] | 39 | 3
CCc1ccc([C@@H]2O[C@H](CO)[C@@H](O)[C@H](O)[C@H]2O)cc1Cc1ccc2c(c1)CC2 [Compound 4, (2S,3R,4R,5S,6R)-2-(3-((1,2-dihydrocyclobutabenzen-4-yl)methyl)-4-ethylphenyl)-6-(hydroxymethyl)-tetrahydro-2H-pyran-3,4,5-triol] | 18 | 3
OC[C@H]1O[C@@H](c2ccc(C3CC3)c(Cc3ccc4c(c3)CC4)c2)[C@H](O)[C@@H](O)[C@@H]1O [Compound 5, (2S,3R,4R,5S,6R)-2-(4-cyclopropyl-3-((1,2-dihydrocyclobutabenzen-4-yl)methyl)phenyl)-6-(hydroxymethyl)-tetrahydro-2H-pyran-3,4,5-triol] | 32 | 5
Cc1cc(O)c([C@@H]2O[C@H](CO)[C@@H](O)[C@H](O)[C@H]2O)cc1Cc1ccc2c(c1)CC2 [Compound 6, (2S,3R,4R,5S,6R)-2-(5-((1,2-dihydrocyclobutabenzen-4-yl)methyl)-2-hydroxy-4-methylphenyl)-6-(hydroxymethyl)-tetrahydro-2H-pyran-3,4,5-triol] | 4 | 1
COc1cc(C)c(Cc2ccc3c(c2)CC3)cc1[C@@H]1O[C@H](CO)[C@@H](O)[C@H](O)[C@H]1O [Compound 7, (2S,3R,4R,5S,6R)-2-(5-((1,2-dihydrocyclobutabenzen-4-yl)methyl)-2-methoxy-4-methylphenyl)-6-(hydroxymethyl)-tetrahydro-2H-pyran-3,4,5-triol] | 48 | 1
OC[C@H]1O[C@@H](c2cc(Cc3ccc4c(c3)CC4)c(Cl)cc2O)[C@H](O)[C@@H](O)[C@@H]1O [Compound 8, (2S,3R,4R,5S,6R)-2-(5-(bicyclo[4.2.0]octa-1(6),2,4-trien-3-ylmethyl)-4-chloro-2-hydroxyphenyl)-6-(hydroxymethyl)oxane-3,4,5-triol] | 5 | –
[2H]C([2H])(c1ccc2c(c1)CC2)c1cc([C@@H]2O[C@H](CO)[C@@H](O)[C@H](O)[C@H]2O)c(O)cc1Cl [Compound 55, (2S,3R,4R,S,6R)-2-(5-[bicyclo[4.2.0]octa-1(6),2,4-trien-3-yl(dideuterium)methyl]-4-chloro-2-hydroxyphenyl)-6-(hydroxymethyl)oxane-3,4,5-triol] | 7 | –
